# Measurements: the supplement of paper PMC11061612
# How the values were obtained:
# [1] = test system: GA-10 (Burkitt's Lymphoma); test: combination Emax (second highest fraction inhibited in the dose matrix, 72 h); higher = more inhibition; extreme values may be limits of the assay
# Procedure, shortened: (§1)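 After 24 hours at 37°C and 5% CO2 in 1536-well plates, cells in DMEM/F12 or RPMI plus 10% FBS received two-drug dose matrices for 72 hours. Viability came from CellTiter-Glo 2.0 luminescence and was scaled as inhibition, anchored at 0 by vehicle wells and at 1 by blank wells. Combination Emax is taken as the second-highest inhibition in the matrix, and Bliss excess as the observed combination effect less EA + EB − EA·EB, with EA and EB the single-agent effects.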
# [2] = test system: GCT (Other Solid Carcinomas); test: as above
# Procedure, shortened: as §1
# [3] = test system: LS-411N (Colorectal Carcinoma); test: as above
# Procedure, shortened: as §1
# [4] = test system: HCC1428 (Breast Carcinoma); test: as above
# Procedure, shortened: as §1
# [5] = test system: AU565 (Breast Carcinoma); test: as above
# Procedure, shortened: as §1
# [6] = test system: OACp4C (Esophageal Adenocarcinoma); test: as above
# Procedure, shortened: as §1
# [7] = test system: HT55 (Colorectal Carcinoma); test: as above
# Procedure, shortened: as §1
# [8] = test system: A204 (Rhabdomyosarcoma); test: as above
# Procedure, shortened: as §1
# [9] = test system: TE-10 (Esophageal Squamous Cell Carcinoma); test: as above
# Procedure, shortened: as §1
# [10] = test system: JIMT-1 (Breast Carcinoma); test: as above
# Procedure, shortened: as §1
# [11] = test system: DU-4475 (Breast Carcinoma); test: as above
# Procedure, shortened: as §1
# [12] = test system: huH-1 (Hepatocellular Carcinoma); test: as above
# Procedure, shortened: as §1
# [13] = test system: NCI-H2228 (Lung Adenocarcinoma); test: as above
# Procedure, shortened: as §1
# [14] = test system: 5637 (Bladder Carcinoma); test: as above
# Procedure, shortened: as §1
# [15] = test system: CESS (Acute Myeloid Leukemia); test: as above
# Procedure, shortened: as §1
# [16] = test system: NCI-H716 (Colorectal Carcinoma); test: as above
# Procedure, shortened: as §1
# [17] = test system: EW-16 (Ewing's Sarcoma); test: as above
# Procedure, shortened: as §1
# [18] = test system: RH-41 (Rhabdomyosarcoma); test: as above
# Procedure, shortened: as §1
# [19] = test system: EPLC-272H (Other Solid Carcinomas); test: as above
# Procedure, shortened: as §1
# [20] = test system: 5637 (Bladder Carcinoma); test: Bliss excess, mean over the matrix (fraction); higher = more synergy
# Procedure, shortened: as §1
# 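Wherever Bliss excess, mean over the matrix is given: after 72 h of two-drug dosing.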
Compound,combination Emax [1],combination Emax [2],combination Emax [3],combination Emax [4],combination Emax [5],combination Emax [6],combination Emax [7],combination Emax [8],combination Emax [9],combination Emax [10],combination Emax [11],combination Emax [12],combination Emax [13],combination Emax [14],combination Emax [15],combination Emax [16],combination Emax [17],combination Emax [18],combination Emax [19],Bliss excess [20]
"CN(CCO)CC[C@H](CSc1ccccc1)Nc1ccc(S(=O)(=O)NC(=O)c2ccc(N3CCC([C@@H](O)c4ccccc4-c4ccc(Cl)cc4)CC3)cc2)cc1S(=O)(=O)C(F)(F)F [AZD4320] + Cn1cnc2c(F)c(Nc3ccc(Br)cc3Cl)c(C(=O)NOCCO)cc21 [Selumetinib] (first compound max 1 µM, 7x7, partner max 3 µM)",0.491,0.352,0.907,0.559,0.421,0.967,0.721,0.325,0.562,0.268,1,0.291,0.203,0.782,0.95,0.582,0.913,0.855,0.562,-0.0332
"Cc1cc2ncnn2cc1Nc1ncc2c(n1)n(C1CCOCC1)c(=O)n2C [AZD7648] + C[C@@H]1COCCN1C2=NC(=NC(=C2)C3(CC3)[S@](=N)(=O)C)C4=C5C=CNC5=NC=C4 [AZD6738] (first compound max 10 µM, 7x7, partner max 10 µM)",0.981,0.245,0.723,0.201,0.416,0.666,0.429,0.439,0.887,0.788,0.912,0.8,0.514,0.632,0.847,0.539,0.69,0.705,0.879,-0.0289
"C[C@@H](c1ccc2nccn2c1)n1nnc2ncc(-c3cnn(C)c3)nc21 [Savolitinib] + CN(CC[C@H](CSC1=CC=CC=C1)NC2=C(C=C(C=C2)S(=O)(=O)NC(=O)C3=CC=C(C=C3)N4CCC(CC4)[C@H](C5=CC=CC=C5C6=CC=C(C=C6)Cl)O)S(=O)(=O)C(F)(F)F)CCO [AZD4320] (first compound max 1 µM, 7x7, partner max 1 µM)",0.138,0.2,0.277,0.476,0.182,0.78,0.155,0.0836,,0.213,0.871,0.202,0.134,0.179,0.291,0.189,0.416,0.806,0.257,-0.057
"CN(CCO)CC[C@H](CSc1ccccc1)Nc1ccc(S(=O)(=O)NC(=O)c2ccc(N3CCC([C@@H](O)c4ccccc4-c4ccc(Cl)cc4)CC3)cc2)cc1S(=O)(=O)C(F)(F)F [AZD4320] + C[C@@H]1COCCN1C2=NC(=NC(=C2)C3(CC3)[S@](=N)(=O)C)C4=C5C=CNC5=NC=C4 [AZD6738] (first compound max 1 µM, 7x7, partner max 10 µM)",0.979,0.304,0.943,0.708,0.494,0.95,0.707,0.438,0.84,0.871,1,0.823,0.466,0.91,0.987,0.647,0.932,0.964,0.936,-0.05
"CN(CCO)CC[C@H](CSc1ccccc1)Nc1ccc(S(=O)(=O)NC(=O)c2ccc(N3CCC([C@@H](O)c4ccccc4-c4ccc(Cl)cc4)CC3)cc2)cc1S(=O)(=O)C(F)(F)F [AZD4320] + C[C@@H](Nc1cc(F)cc(F)c1)c1cc(C(=O)N(C)C)cc2c(=O)cc(N3CCOCC3)oc12 [AZD8186] (first compound max 1 µM, 7x7, partner max 3 µM)",0.85,0.442,0.414,0.525,0.364,0.916,0.422,0.451,0.618,0.316,1,0.229,0.329,0.672,0.935,0.285,0.937,0.941,0.602,-0.0028
"CN(CCO)CC[C@H](CSc1ccccc1)Nc1ccc(S(=O)(=O)NC(=O)c2ccc(N3CCC([C@@H](O)c4ccccc4-c4ccc(Cl)cc4)CC3)cc2)cc1S(=O)(=O)C(F)(F)F [AZD4320] + C=CCn1c(=O)c2cnc(Nc3ccc(N4CCN(C)CC4)cc3)nc2n1-c1cccc(C(C)(C)O)n1 [AZD1775] (first compound max 1 µM, partner max 1 µM)",1,0.481,0.938,0.505,0.829,0.938,0.899,0.334,0.848,0.842,1,0.613,0.512,0.979,1,0.449,0.904,1,0.909,0.0437
"COc1cc2ncnc(Nc3ccc(F)c(Cl)c3)c2cc1OCCCN1CCOCC1 [Gefitinib] + CC(C)n1c(=O)n(C)c2cnc3cc(F)c(-c4ccc(OCCCN5CCCCC5)nc4)cc3c21 [AZD1390] (first compound max 10 µM, 7x7, partner max 0.3 µM)",0.353,0.12,0.0453,0.101,0.737,0.572,0.353,0.139,,0.491,0.157,0.134,0.203,0.495,0.195,0.361,0.176,0.147,0.565,-0.0467
"Cc1nc(Nc2ncc(C(=O)Nc3c(C)cccc3Cl)s2)cc(N2CCN(CCO)CC2)n1 [Dasatinib] + CC(=O)Nc1cccc(-n2c(=O)n(C3CC3)c(=O)c3c(Nc4ccc(I)cc4F)n(C)c(=O)c(C)c32)c1 [Trametinib] (first compound max 2 µM, 7x7, partner max 1 µM)",0.609,0.554,0.834,0.205,0.123,0.995,0.751,0.512,,0.779,1,0.305,0.737,0.973,0.527,0.472,0.281,0.443,0.956,0.0923
"C[C@@H](c1ccc2nccn2c1)n1nnc2ncc(-c3cnn(C)c3)nc21 [Savolitinib] + Cc1c2c(nn1C)CSCc1cc(n(C)n1)CSc1cc(c3ccccc3c1)OCCCc1c(C(=O)O)n(C)c3c-2c(Cl)ccc13 [AZD5991] (first compound max 1 µM, 7x7, partner max 1 µM)",0.669,0.211,0.188,0.971,1,0.283,0.187,0.167,,0.213,0.173,0.16,0.195,0.0543,0.175,0.0581,0.167,0.888,0.462,-0.0456
"COc1nnc2ccc(N3CCC(c4ccc(OCCN5CCN(C)C(=O)[C@H]5C)cc4)CC3)nn12 [AZD5153] + CN(CC[C@H](CSC1=CC=CC=C1)NC2=C(C=C(C=C2)S(=O)(=O)NC(=O)C3=CC=C(C=C3)N4CCC(CC4)[C@H](C5=CC=CC=C5C6=CC=C(C=C6)Cl)O)S(=O)(=O)C(F)(F)F)CCO [AZD4320] (first compound max 1 µM, 7x7, partner max 1 µM)",0.672,0.595,0.978,0.915,0.386,0.918,0.519,0.464,,0.384,1,0.354,0.357,0.957,0.841,0.754,0.674,1,0.868,0.122
"CC(=O)c1c(C)c2cnc(Nc3ccc(N4CCNCC4)cn3)nc2n(C2CCCC2)c1=O [Palbociclib] + CN(CC[C@H](CSC1=CC=CC=C1)NC2=C(C=C(C=C2)S(=O)(=O)NC(=O)C3=CC=C(C=C3)N4CCC(CC4)[C@H](C5=CC=CC=C5C6=CC=C(C=C6)Cl)O)S(=O)(=O)C(F)(F)F)CCO [AZD4320] (first compound max 10 µM, 7x7, partner max 1 µM)",0.95,0.421,0.691,0.449,0.227,0.839,0.498,0.377,,0.257,0.943,0.31,0.275,0.619,0.906,0.497,0.64,0.883,0.594,-0.0373
"C[C@@H](c1ccc2nccn2c1)n1nnc2ncc(-c3cnn(C)c3)nc21 [Savolitinib] + CC1(C)CCC(CN2CCN(c3ccc(C(=O)NS(=O)(=O)c4ccc(NCC5CCOCC5)c([N+](=O)[O-])c4)c(Oc4cnc5[nH]ccc5c4)c3)CC2)=C(c2ccc(Cl)cc2)C1 [Venetoclax] (first compound max 1 µM, 7x7, partner max 1 µM)",0.101,0.0973,0.0933,0.125,0.168,0.204,0.0925,0.0862,,0.164,0.146,0.149,0.114,0.0801,0.204,0.251,0.12,0.201,0.205,-0.0523
